For assay [1], the system named is AGSST (creeping bentgrass). The assay is described as follows: Pre-plant incorporated (PPI) herbicidal activity, cool season. Particulars: for PPI activity GR80, AGSST: pre-plant incorporated, lowest tested rate with 80% or greater inhibition, about 14 days. The class given is in vivo, Agrostis stolonifera. On the procedure:
(§1) In another set of tests, the pre-plant incorporated (PPI) activity of compounds of this invention was evaluated on the same species as for the pre-emergence tests described above. In the PPI tests the following procedure, designed to simulate PPI application, was used.
(§2) A pre-prepared topsoil mixture (described above) was placed in a pot and compacted to a depth of 1.0 to 1.25 cm from the top of the pot. Seeds of each of several monocotyledonous and dicotyledonous annual plant species were placed on top of the soil. A sufficient quantity of soil to cover the seeds and level fill the pot was weighed into an open container. A known amount of the test compound was dissolved or suspended in an organic solvent and applied by spraying to this cover soil. The cover soil was thoroughly mixed to distribute the test compound throughout the cover soil, and was then applied as a cover layer over the seeds. Untreated soil was used as a cover layer for control pots. After treatment the plants were placed in a greenhouse where they received 0.64 cm of overhead irrigation. All subsequent watering consisted of a light overhead mist and/or subirrigation as needed for germination and growth. Tables 9 and 10 below relate to warm season plant species which were placed after pre-emergence treatment in a greenhouse with a 30/21° C. day/night temperature regime. Tables 11 and 12 below relates to cool season plant species placed after pre-emergence treatment in a greenhouse or growth chamber with an 18/13° C. day/night temperature regime. Only the compounds of Examples 1, 6, 8, 11, 13 and 15-20 were included in PPI tests.
(§3) Approximately 14 days after planting and treating, the plants were observed and herbicidal efficacy recorded as percent inhibition by comparison with untreated plants.

Assay [2] relates to STEME (common chickweed). The assay is described as follows: Pre-emergence herbicidal activity, cool season. Type of assay: in vivo, Stellaria media. Particulars: lowest tested rate with 80% or greater inhibition; rates 300, 100, 30, 10 g/ha; about 14 days. The procedure, abridged: (§4)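 GR80 values derive from percent inhibition relative to untreated plants, read roughly 14 days after sowing and pre-emergence soil-surface treatment (compound in 50:50 acetone/water; rates typically 10, 30, 100, 300 g/ha). Warm-season weeds grew at 30/21° C day/night, cool-season ones at 18/13° C; an asterisk marks activity without reaching 80% at the highest rate.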

Assay [3] deals with SASKR (russian thistle). The assay can be described thus: Pre-plant incorporated (PPI) herbicidal activity, cool season. Type of assay: in vivo, Salsola kali. Particulars: for PPI activity GR80, SASKR: pre-plant incorporated, lowest tested rate with 80% or greater inhibition, about 14 days. On the procedure: as §1, §2, §3
Assay [4] relates to CIRAR (canada thistle (seedling)). The assay can be described thus: Pre-emergence herbicidal activity, warm season. Type of assay: in vivo, Cirsium arvense. To be noted: GR80 = lowest tested rate (300, 100, 30, 10 g/ha) with 80% or greater inhibition; approx. 14 days after treating; 30/21° C. The procedure, abridged:
as §4

Assay [5] deals with LOLMG (annual ryegrass). The assay is described as follows: Pre-plant incorporated (PPI) herbicidal activity, cool season. Particulars: for PPI activity GR80, LOLMG: pre-plant incorporated, lowest tested rate with 80% or greater inhibition, about 14 days. The class given is in vivo, Lolium multiflorum. On the procedure:
as §1, §2, §3

The test system of assay [6] is DIGSA (large crabgrass). The assay can be described thus: Pre-plant incorporated (PPI) herbicidal activity, warm season. The class given is in vivo, Digitaria sanguinalis. To be noted: for PPI activity GR80, DIGSA: pre-plant incorporated, lowest tested rate with 80% or greater inhibition, about 14 days. On the procedure: as §1, §2, §3
Assay [7] relates to PANMI (wild proso millet). The assay can be described thus: Pre-emergence herbicidal activity, warm season. The class given is in vivo, Panicum miliaceum. Particulars: GR80 = lowest tested rate (300, 100, 30, 10 g/ha) with 80% or greater inhibition; approx. 14 days after treating; 30/21° C. The procedure, abridged: as §4
For assay [8], the system named is AVEFA (wild oat). The assay can be described thus: Pre-plant incorporated (PPI) herbicidal activity, cool season. The class given is in vivo, Avena fatua. To be noted: for PPI activity GR80, AVEFA: pre-plant incorporated, lowest tested rate with 80% or greater inhibition, about 14 days. On the procedure: as §1, §2, §3
The test system of assay [9] is SOLNI (black nightshade). The assay can be described thus: Pre-emergence herbicidal activity, warm season. To be noted: GR80 = lowest tested rate (300, 100, 30, 10 g/ha) with 80% or greater inhibition; approx. 14 days after treating; 30/21° C. The class given is in vivo, Solanum nigrum. In short, it runs like this: as §4
Assay [10] concerns soybean (GLYMX). The assay can be described thus: Selectivity test, PPI, warm season crop. To be noted: Glycine max, PPI application, read-out: Percent inhibition GLYMX. The class given is in vivo, Glycine max. On the procedure:
as §2, §3
(§5) Additional pre-emergence and PPI tests were conducted by the procedures described above, on warm and cool season weed species in the presence of crop species, to assess herbicidal selectivity. Crop species included in warm season tests were corn (Zea mays, ZEAMX), rice (Oryza sativa, ORYSA) and soybean (Glycine max, GLYMX). Crop species included in cool season tests were wheat (Triticum aestivum, TRZAW), barley (Hordeunm vulgare, HORVX) and oilseed rape (Brassica napus, BRSNS).
(§6) Tables 15 and 16 relate to pre-emergence and PPI tests respectively on warm season species. Table 17 relates to pre-emergence tests on cool season species.

The test system of assay [11] is corn (ZEAMX). The assay is described as follows: Selectivity test, PPI, warm season crop. The class given is in vivo, Zea mays. Particulars: Zea mays, PPI application, read-out: Percent inhibition ZEAMX. On the procedure: as §2, §3, §5, §6

As to `CCN(CC)C(=O)n1cnc(S(=O)(=O)C(F)(F)C(=O)c2ccccc2)n1` [Example 6], the “PPI activity GR80, AGSST” value in assay [1] is listed as 100 g/ha. The “Pre-emergence activity GR80, STEME” value in assay [2] is 300 g/ha. The “PPI activity GR80, SASKR” value in [3] was 300 g/ha. Besides, in assay [4], the “Pre-emergence activity (GR80) CIRAR” value is given as 300 g/ha. Further, the “PPI activity GR80, LOLMG” value in assay [5] is 300 g/ha. For the same compound, in [6], the “PPI activity GR80, DIGSA” value was 100 g/ha. Besides, the “Pre-emergence activity (GR80) PANMI” value in assay [7] was determined as 300 g/ha. Further, the “PPI activity GR80, AVEFA” value in assay [8] worked out at 300 g/ha.
As for `CCN(CC)C(=O)n1cnc(S(=O)(=O)C(F)(F)C(F)(F)SC)n1` [Example 14], in [2], the “Pre-emergence activity GR80, STEME” value is given as 300 g/ha. Further, in [4], the “Pre-emergence activity (GR80) CIRAR” value worked out at 300 g/ha. Also, the “Pre-emergence activity (GR80) SOLNI” value in assay [9] stood at 300 g/ha. For the same compound, the “Pre-emergence activity (GR80) PANMI” value in [7] amounted to 100 g/ha.
Turning to `C=CCC(F)(F)S(=O)(=O)c1ncn(C(=O)N(CC)CC)n1` [Example 17, 1-(N,N-diethylcarbamoyl)-3-[(1,1-difluoro-3-butenyl)sulfonyl]-1,2,4-triazole], the inhibition at 10 g/ha stood at 0% in assay [10] (10 g/ha); 70% in assay [1] (Agrostis stolonifera, weed, PPI application, 10 g/ha, read-out: Percent inhibition AGSST); 0% in [3] (Salsola kali, weed, PPI application, 10 g/ha, read-out: Percent inhibition SASKR); 45% in assay [5] (Lolium multiflorum, weed, PPI application, 10 g/ha, read-out: Percent inhibition LOLMG); 60% in assay [6] (Digitaria sanguinalis, PPI application, 10 g/ha, read-out: Percent inhibition DIGSA); 0% in assay [11] (10 g/ha). Further, the inhibition at 10 g/ha in [8] (Avena fatua, weed, PPI application, 10 g/ha, read-out: Percent inhibition AVEFA) was determined as 0%. Also, the inhibition at 30 g/ha worked out at 0% in [10] (30 g/ha); 95% in assay [1] (Agrostis stolonifera, weed, PPI application, 30 g/ha, read-out: Percent inhibition AGSST); 0% in assay [3] (Salsola kali, weed, PPI application, 30 g/ha, read-out: Percent inhibition SASKR); 60% in assay [5] (Lolium multiflorum, weed, PPI application, 30 g/ha, read-out: Percent inhibition LOLMG); 80% in assay [6] (Digitaria sanguinalis, PPI application, 30 g/ha, read-out: Percent inhibition DIGSA); 0% in assay [11] (30 g/ha). For the same compound, the inhibition at 30 g/ha in assay [8] (Avena fatua, weed, PPI application, 30 g/ha, read-out: Percent inhibition AVEFA) came to 15%. The inhibition at 100 g/ha came to 0% in assay [10] (100 g/ha); 95% in assay [1] (Agrostis stolonifera, weed, PPI application, 100 g/ha, read-out: Percent inhibition AGSST); 0% in assay [3] (Salsola kali, weed, PPI application, 100 g/ha, read-out: Percent inhibition SASKR); 95% in assay [5] (Lolium multiflorum, weed, PPI application, 100 g/ha, read-out: Percent inhibition LOLMG); 80% in assay [6] (Digitaria sanguinalis, PPI application, 100 g/ha, read-out: Percent inhibition DIGSA); 20% in assay [11] (100 g/ha). The inhibition at 100 g/ha in [8] (Avena fatua, weed, PPI application, 100 g/ha, read-out: Percent inhibition AVEFA) came out at 50%. In addition, the inhibition at 300 g/ha in [10] (300 g/ha) was found to be 20%; in assay [1] (Agrostis stolonifera, weed, PPI application, 300 g/ha, read-out: Percent inhibition AGSST) it was 100%; in assay [3] (Salsola kali, weed, PPI application, 300 g/ha, read-out: Percent inhibition SASKR) it was 60%; in assay [5] (Lolium multiflorum, weed, PPI application, 300 g/ha, read-out: Percent inhibition LOLMG) it was 100%; in assay [6] (Digitaria sanguinalis, PPI application, 300 g/ha, read-out: Percent inhibition DIGSA), 80%; in assay [11] (300 g/ha), 30%. Also, the inhibition at 300 g/ha in assay [8] (Avena fatua, weed, PPI application, 300 g/ha, read-out: Percent inhibition AVEFA) was 75%. In addition, the inhibition at 900 g/ha in assay [10] (900 g/ha) came out at 80%; in [1] (Agrostis stolonifera, weed, PPI application, 900 g/ha, read-out: Percent inhibition AGSST), 100%; in assay [3] (Salsola kali, weed, PPI application, 900 g/ha, read-out: Percent inhibition SASKR), 100%; in [5] (Lolium multiflorum, weed, PPI application, 900 g/ha, read-out: Percent inhibition LOLMG), 100%; in [6] (Digitaria sanguinalis, PPI application, 900 g/ha, read-out: Percent inhibition DIGSA) it was 100%; in assay [11] (900 g/ha), 95%. Further, in assay [8] (Avena fatua, weed, PPI application, 900 g/ha, read-out: Percent inhibition AVEFA), the inhibition at 900 g/ha was found to be 100%. Also, in [1], the “PPI activity GR80, AGSST” value is 10 g/ha. Moreover, the “Pre-emergence activity GR80, STEME” value in assay [2] is 100 g/ha. Besides, in assay [3], the “PPI activity GR80, SASKR” value amounted to 30 g/ha. Also, the “PPI activity GR80, LOLMG” value in assay [5] stood at 100 g/ha. In addition, in assay [6], the “PPI activity GR80, DIGSA” value was 30 g/ha. For the same compound, the “Pre-emergence activity (GR80) SOLNI” value in assay [9] turned out to be 100 g/ha. Besides, the “Pre-emergence activity (GR80) PANMI” value in assay [7] is recorded as 100 g/ha. For the same compound, the “PPI activity GR80, AVEFA” value in [8] is on record as 100 g/ha.

These data come from patent US6461997B1, “Triazole sulfones having herbicidal activity” (Monsanto Technology LLC, priority 1999, dated 2002).
